Results reported in article PMC9334755 (Cancer Biology & Medicine, 2021).
Read-outs that look alike come from different tables or passages of the source.

Tests used:
BTK [1] = biological target: BTK (Homo sapiens, UniProt Q06187); assay: Competition with fluorescent probe FL-SY-1530 in DOHH2 cells (Typhoon imaging); type: cell-based; settings: 10 nM inhibitor 1 h, then 2.5 µM FL-SY-1530 1 h
Method: Data are shown as the mean ± SEM. […] Data are shown as the mean ± SEM of 3 independent experiments. Statistical analysis was performed with Student’s t-test (**P < 0.01, ***P < 0.001). […] Cells were lysed and then analyzed by Western blot and fluorescent gel scanning. […] Cells were lysed and analyzed by Western blot and fluorescent gel scanning.

LCK = LCK (Homo sapiens, UniProt P06239); assay: Protein kinase panel at 1 µM, LCK; type: biochemical
FGFR3 = FGFR3 (Homo sapiens, UniProt P22607); assay: Protein kinase panel at 1 µM, FGFR3; type: biochemical
Sequence of FGFR3 (P22607 23-806): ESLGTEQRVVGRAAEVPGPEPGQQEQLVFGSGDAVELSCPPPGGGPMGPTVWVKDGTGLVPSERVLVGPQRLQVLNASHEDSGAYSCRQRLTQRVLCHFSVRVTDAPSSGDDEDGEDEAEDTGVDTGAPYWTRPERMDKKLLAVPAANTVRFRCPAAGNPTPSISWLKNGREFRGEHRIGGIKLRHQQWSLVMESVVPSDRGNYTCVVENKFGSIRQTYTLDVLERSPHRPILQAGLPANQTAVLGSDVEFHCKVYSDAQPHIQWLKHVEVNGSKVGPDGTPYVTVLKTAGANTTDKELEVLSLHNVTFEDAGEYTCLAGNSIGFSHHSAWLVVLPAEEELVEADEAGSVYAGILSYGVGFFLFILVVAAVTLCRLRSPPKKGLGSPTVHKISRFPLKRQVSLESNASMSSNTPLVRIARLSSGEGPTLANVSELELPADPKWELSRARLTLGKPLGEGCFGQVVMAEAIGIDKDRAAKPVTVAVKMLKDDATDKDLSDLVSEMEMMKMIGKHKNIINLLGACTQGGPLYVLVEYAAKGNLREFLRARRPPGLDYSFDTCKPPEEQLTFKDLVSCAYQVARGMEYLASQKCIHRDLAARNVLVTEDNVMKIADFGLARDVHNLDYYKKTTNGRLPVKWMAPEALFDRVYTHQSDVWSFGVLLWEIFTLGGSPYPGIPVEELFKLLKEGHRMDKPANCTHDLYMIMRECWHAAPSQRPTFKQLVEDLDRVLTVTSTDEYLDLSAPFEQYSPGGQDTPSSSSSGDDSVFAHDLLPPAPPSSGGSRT

TXK = TXK (Homo sapiens, UniProt P42681); assay: Protein kinase panel at 1 µM, TXK; type: biochemical
Sequence of TXK (P42681 whole entry): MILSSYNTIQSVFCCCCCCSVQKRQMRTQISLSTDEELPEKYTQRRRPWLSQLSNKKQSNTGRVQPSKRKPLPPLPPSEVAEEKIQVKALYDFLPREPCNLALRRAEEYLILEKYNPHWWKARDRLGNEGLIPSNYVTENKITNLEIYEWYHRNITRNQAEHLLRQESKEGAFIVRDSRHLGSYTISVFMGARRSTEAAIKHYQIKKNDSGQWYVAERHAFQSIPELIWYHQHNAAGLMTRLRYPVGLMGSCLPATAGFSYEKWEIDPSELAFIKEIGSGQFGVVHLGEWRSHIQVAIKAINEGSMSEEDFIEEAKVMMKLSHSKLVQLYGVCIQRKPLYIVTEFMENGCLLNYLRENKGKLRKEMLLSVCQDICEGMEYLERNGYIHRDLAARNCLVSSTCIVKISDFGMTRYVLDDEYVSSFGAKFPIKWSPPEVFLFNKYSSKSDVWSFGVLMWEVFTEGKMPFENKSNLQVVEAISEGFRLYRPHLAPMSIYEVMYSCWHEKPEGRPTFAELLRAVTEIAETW

LYN A = LYN A (Homo sapiens, UniProt P07948); assay: Protein kinase panel at 1 µM, LYN A; type: biochemical
B cell = assay: Cell viability assay (CellTiter-Blue), human B cells; type: cell-based; settings: read-out: IC50 (nM), growth of B cell
Method: Cells were seeded on 96-well plates (9,000 cells/well), cultured at 37 °C in 5% CO2 overnight, and incubated with different concentrations of compounds for 3 or 7 days. Then the cells were stained with CellTiter-Blue® reagent (Promega) for 4 h at 37 °C. The fluorescence signals were detected with a FlexStation 3, and the IC50 values of each compound were determined with GraFit software (Version 6.0).
CD19^+ B (>80% purity) and CD3^+ T (>90% purity) cells were purified with human B cell enrichment cocktail and human T cell enrichment cocktail (Stem Cell Technology), respectively. Cells were seeded on 12-well plates and incubated with different concentrations of BTK inhibitors for 1 h. B cells were stimulated with 50 µg/mL anti-human IgM F(ab′)2, and T cells were stimulated with 50 µg/mL anti-CD3/CD28 beads overnight. In the washout groups, the cell medium containing the indicated inhibitors was replaced with fresh medium before stimulation. Then cells were then incubated with anti-human CD69 for 1 h and analyzed with a Guava flow cytometer.

HCK = HCK (Homo sapiens, UniProt P08631); assay: Protein kinase panel at 1 µM, HCK; type: biochemical
[2] = rat
[3] = monkey
[4] = rat, in vivo
JAK3 = JAK3 (Homo sapiens, UniProt P52333); assay: HTRF kinase assay, JAK3
Sequence of JAK3 (P52333 whole entry): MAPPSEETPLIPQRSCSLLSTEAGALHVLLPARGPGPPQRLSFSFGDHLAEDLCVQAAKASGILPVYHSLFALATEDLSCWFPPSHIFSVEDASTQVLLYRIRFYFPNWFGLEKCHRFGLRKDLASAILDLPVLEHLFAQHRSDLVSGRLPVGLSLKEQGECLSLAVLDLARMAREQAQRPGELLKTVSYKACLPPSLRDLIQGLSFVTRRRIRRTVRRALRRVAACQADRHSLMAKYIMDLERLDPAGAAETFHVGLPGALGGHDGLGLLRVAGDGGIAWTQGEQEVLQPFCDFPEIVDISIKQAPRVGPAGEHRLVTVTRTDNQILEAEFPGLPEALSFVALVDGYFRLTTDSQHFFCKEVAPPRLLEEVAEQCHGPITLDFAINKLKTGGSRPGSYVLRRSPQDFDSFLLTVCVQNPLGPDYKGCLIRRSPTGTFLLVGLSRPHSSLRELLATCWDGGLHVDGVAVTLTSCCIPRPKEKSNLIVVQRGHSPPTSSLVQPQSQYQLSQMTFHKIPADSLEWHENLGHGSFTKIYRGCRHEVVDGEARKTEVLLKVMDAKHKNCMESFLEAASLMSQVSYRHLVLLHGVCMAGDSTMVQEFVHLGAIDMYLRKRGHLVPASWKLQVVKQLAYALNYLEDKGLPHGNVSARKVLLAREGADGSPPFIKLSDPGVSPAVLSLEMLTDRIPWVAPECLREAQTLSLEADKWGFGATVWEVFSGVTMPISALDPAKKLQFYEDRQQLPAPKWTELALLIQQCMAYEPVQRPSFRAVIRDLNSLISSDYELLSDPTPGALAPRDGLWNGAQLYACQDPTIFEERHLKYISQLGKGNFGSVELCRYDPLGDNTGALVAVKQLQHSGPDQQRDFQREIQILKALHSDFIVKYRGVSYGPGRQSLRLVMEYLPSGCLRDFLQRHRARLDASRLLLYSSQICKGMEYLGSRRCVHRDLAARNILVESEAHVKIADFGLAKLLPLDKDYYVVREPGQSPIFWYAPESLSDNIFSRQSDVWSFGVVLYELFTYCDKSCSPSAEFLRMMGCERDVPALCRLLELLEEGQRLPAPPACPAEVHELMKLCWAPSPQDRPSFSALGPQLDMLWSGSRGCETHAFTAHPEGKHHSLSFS
Method: (§1) Homogeneous time-resolved fluorescence (HTRF) assays were performed with a HTRF® KinEASE™-TK kit (Trevigen).

BTK [5] = biological target: T1, BTK (Mus musculus, UniProt P35991); assay: In vivo occupancy of BTK in mouse splenocytes; settings: BALB/c mice, oral 50 mg/kg, 12 h after administration
T1 construct: from tissue; host or cells: splenocytes from spleens of normal BALB/c mice
T1 sequence (P35991 whole entry): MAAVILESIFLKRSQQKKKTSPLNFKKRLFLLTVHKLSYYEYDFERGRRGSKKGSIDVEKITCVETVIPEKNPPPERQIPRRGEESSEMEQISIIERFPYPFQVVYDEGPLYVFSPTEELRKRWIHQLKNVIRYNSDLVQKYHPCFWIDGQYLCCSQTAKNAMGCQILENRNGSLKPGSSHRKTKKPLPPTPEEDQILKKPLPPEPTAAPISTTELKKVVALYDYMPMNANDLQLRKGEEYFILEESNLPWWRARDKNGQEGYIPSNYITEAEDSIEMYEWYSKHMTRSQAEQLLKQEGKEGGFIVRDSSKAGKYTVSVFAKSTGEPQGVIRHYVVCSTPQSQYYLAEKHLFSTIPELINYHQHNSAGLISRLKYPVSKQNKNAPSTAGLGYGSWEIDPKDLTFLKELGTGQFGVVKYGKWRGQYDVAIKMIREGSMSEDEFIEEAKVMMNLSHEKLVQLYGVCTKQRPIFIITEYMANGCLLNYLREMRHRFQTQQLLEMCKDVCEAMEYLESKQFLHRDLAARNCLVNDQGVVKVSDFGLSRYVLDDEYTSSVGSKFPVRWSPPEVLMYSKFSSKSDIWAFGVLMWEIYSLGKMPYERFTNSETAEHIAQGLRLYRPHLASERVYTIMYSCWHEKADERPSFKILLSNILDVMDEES
Method: Cells were treated as indicated before the addition of a fluorescent probe (FL-SY-1530). After incubation, cells were collected and lysed for 5 min in cell lysis buffer. For analysis of the in vivo occupancy of BTK inhibitors, normal BALB/c mice (6–8 weeks old) were orally administered BTK inhibitors, […] seeded on 12-well plates and incubated with the fluorescent probe for 1 h. Then the samples were subjected to SDS-PAGE, and the gels were scanned with a Typhoon imaging system (excitation at 532 nm and emission at 555 nm). After scanning, the gels were detected with Western blot.
Figure 3 SY-1530 binds BTK in a dose-dependent and time-dependent manner. (A) The content of SY-1530 was measured with LC-MS/MS after incubation with BTK for the indicated time periods. Data are shown as the mean ± SEM. (B) SY-1530 was incubated with different concentrations of BTK, and LC-MS/MS was then performed to detect SY-1530 content. Data are shown as the mean ± SEM of 3 independent experiments. Statistical analysis was performed with Student’s t-test (**P < 0.01, ***P < 0.001). […] Cells were lysed and then analyzed by Western blot and fluorescent gel scanning. […] The concentration of SY-1530 in the plasma was measured with LC-MS/MS. […] Cells were lysed and analyzed by Western blot and fluorescent gel scanning. The concentration of SY-1530 in the plasma was measured with LC-MS/MS.

HER2 = HER2 (Homo sapiens, UniProt P04626); assay: HTRF kinase assay, HER2
Sequence of HER2 (P04626 23-1255): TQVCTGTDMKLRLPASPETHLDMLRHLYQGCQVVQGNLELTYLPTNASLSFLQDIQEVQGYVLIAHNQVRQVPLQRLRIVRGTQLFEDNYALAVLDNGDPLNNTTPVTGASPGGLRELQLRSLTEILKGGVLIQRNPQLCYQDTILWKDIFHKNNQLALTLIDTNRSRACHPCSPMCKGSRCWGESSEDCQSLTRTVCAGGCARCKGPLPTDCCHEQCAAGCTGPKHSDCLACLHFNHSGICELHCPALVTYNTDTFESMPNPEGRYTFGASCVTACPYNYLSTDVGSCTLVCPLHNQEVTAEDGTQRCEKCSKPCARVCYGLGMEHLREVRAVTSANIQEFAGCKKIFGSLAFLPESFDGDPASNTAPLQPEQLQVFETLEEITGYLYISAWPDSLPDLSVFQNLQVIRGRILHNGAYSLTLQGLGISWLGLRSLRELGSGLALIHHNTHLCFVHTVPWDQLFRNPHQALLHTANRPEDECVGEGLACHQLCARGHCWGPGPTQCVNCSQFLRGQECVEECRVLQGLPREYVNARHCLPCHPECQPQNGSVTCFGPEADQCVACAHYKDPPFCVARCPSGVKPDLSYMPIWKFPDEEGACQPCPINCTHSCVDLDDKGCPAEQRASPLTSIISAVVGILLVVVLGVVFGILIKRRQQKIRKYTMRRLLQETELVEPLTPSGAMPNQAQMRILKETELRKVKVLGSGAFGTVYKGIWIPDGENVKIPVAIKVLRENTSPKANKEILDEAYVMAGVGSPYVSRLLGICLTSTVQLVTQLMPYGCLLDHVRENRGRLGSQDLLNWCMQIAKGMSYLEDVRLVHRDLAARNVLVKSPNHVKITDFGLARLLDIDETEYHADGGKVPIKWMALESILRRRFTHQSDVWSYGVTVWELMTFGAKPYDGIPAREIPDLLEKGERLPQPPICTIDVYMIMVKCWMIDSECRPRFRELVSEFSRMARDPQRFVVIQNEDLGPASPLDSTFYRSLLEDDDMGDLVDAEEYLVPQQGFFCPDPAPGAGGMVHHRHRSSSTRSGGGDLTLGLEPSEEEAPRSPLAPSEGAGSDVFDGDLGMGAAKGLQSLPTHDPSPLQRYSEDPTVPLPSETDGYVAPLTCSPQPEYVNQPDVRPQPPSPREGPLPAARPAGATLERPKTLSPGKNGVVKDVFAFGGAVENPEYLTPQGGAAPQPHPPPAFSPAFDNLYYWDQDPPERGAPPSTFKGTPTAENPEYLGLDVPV
Method: as §1

[6] = IC50 SY-1530 over IC50 ibrutinib

Sequence of BTK (Homo sapiens, UniProt Q06187) (Q06187 whole entry): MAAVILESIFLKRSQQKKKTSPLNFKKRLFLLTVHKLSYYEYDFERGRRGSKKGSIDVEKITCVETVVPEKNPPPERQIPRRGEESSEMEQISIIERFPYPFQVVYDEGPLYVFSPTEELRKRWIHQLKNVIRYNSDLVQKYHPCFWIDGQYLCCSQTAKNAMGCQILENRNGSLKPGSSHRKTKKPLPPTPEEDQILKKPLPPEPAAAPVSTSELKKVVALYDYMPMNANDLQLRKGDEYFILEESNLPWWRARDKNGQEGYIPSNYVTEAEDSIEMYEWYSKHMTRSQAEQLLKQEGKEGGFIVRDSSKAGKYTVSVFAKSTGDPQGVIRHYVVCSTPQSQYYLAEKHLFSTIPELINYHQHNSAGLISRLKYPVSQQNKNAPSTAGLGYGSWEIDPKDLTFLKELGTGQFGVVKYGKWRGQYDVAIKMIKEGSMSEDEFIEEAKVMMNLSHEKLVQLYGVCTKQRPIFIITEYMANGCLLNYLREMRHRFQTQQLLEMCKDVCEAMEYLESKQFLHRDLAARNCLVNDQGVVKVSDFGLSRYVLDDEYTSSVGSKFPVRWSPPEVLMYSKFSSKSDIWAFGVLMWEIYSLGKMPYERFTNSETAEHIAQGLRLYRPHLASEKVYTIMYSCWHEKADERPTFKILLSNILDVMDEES

For COC/C=C/C(=O)N1CC[C@@H](n2nc(-c3ccc(Oc4ccccc4)cc3)c(C(N)=O)c2N)C1 [SY-1530], the “Binding of FL-SY-1530 to BTK after pretreatment with inhibitor” value (BTK [1]) was “scarcely bound”, the “Inhibition (%), LCK” value (LCK) was 94% and the “Inhibition (%), FGFR3” value (FGFR3) was 25%. The “Inhibition (%), TXK” value (TXK) was 73%, the “Inhibition (%), LYN A” value (LYN A) was 87% and the IC50 (B cell) was 1.05 nM. For the same compound, the “Inhibition (%), HCK” value (HCK) was 67%, the “Plasma protein binding (%)” value [2] was 95.0% and the “Plasma protein binding (%)” value [3] was 95.3%. The “AUC0–∞” value ([4]; iv, 5 mg/kg) was 4112 ng·h/mL, the “AUC0–∞” value ([4]; po, 30 mg/kg) was 4460 ng·h/mL and the “Cmax” value ([4]; po, 30 mg/kg) was 658 ng/mL. The “F (%)” value ([4]; po, 30 mg/kg) was 18.1%, the “Tmax” value ([4]; po, 30 mg/kg) was 3.33 h and the “t½” value ([4]; po, 30 mg/kg) was 4.79 h. The “AUC0–∞” value ([4]; po, 100 mg/kg) was 6842 ng·h/mL, the “Cmax” value ([4]; po, 100 mg/kg) was 1085 ng/mL and the “F (%)” value ([4]; po, 100 mg/kg) was 8.32%. The “Tmax” value ([4]; po, 100 mg/kg) was 1.75 h, the “t½” value ([4]; po, 100 mg/kg) was 3.08 h and the “AUC0–∞” value ([4]; po, 300 mg/kg) was 9257 ng·h/mL. For the same compound, the “Cmax” value ([4]; po, 300 mg/kg) was 1129 ng/mL, the “F (%)” value ([4]; po, 300 mg/kg) was 3.75% and the “Tmax” value ([4]; po, 300 mg/kg) was 5.25 h. The “t½” value ([4]; po, 300 mg/kg) was 3.9 h, the “Ratio, JAK3” value (JAK3; [6]) was > 27 and the IC50 (JAK3; read-out: IC50 (nM), JAK3, HTRF) was > 10000 nM. For the same compound, the “BTK protein in splenocytes bound by inhibitor” value (BTK [5]) was “still bound”, the “Ratio, HER2” value (HER2; [6]) was > 2500 and the IC50 (HER2; read-out: IC50 (nM), HER2, HTRF) was > 10000 nM.
